Measurements taken from patent US8586551B2, “18-membered macrocycles and analogs thereof” (Optimer Pharmaceuticals, Inc., priority 2005, dated 2013).

How the values were obtained:
Assay type in all cases: cell-based
[1] = tested on: C. difficile clinical isolates; assay: MIC via agar dilution versus 110 clinical isolates of C. difficile
[2] = tested on: Clostridium tertium; assay: MIC against anaerobes: Clostridium tertium; conditions: Clostridium tertium (10)
[3] = tested on: Non-fragilis B. fragilis group species; assay: MIC against anaerobes: non-fragilis B. fragilis group; conditions: Bacteroides fragilis; Non-fragilis B. fragilis group species (38)
Protocol: The in vitro activity of OPT-80 was determined against 350 anaerobes. The experimental procedure for which is outlined in Antimicrobial Agents and Chemotherapy, 2004, 48: 4430-4434, which is hereby incorporated by reference in its entirety.
All organisms, including the 21 C. difficile strains, were separate isolates and not clonally related. All quality-control gram-negative and -positive strains recommended by NCCLS were included with each run: in every case, results (where available) were in range.

[4] = tested on: Clostridium bolteae; assay: MIC against intestinal bacteria: Clostridium bolteae; conditions: Clostridium bolteae (7)
[5] = tested on: Clostridium clostridioforme; assay: MIC against intestinal bacteria: Clostridium clostridioforme; conditions: Clostridium clostridioforme (4)
Protocol: The in vitro activity of OPT-80 against intestinal bacteria was evaluated. The experimental procedure for which is outlined in Antimicrobial Agents and Chemotherapy, 2004, 48: 4898-4902, which is hereby incorporated by reference in its entirety.
Antimicrobial concentration ranges were selected to encompass or surpass the levels that would be achieved in the gut (to the extent that this information is available), subject to the limitations of solubility of the drugs in the testing medium. The range of concentration of OPT-80 used during testing was 0.03 μg/ml to 1024 μg/ml.
For analysis, the bacteria tested were generally placed into genus, species, or other groups with at least 10 isolates. The ranges and the MICs at which 50 and 90% of isolates were inhibited were determined except for organisms with fewer than 10 strains tested, for which only the ranges are reported (Table 8).

[6] = tested on: Clostridium glycolicum; assay: MIC against intestinal bacteria: Clostridium glycolicum; conditions: Clostridium glycolicum (9)
[7] = tested on: Anaerobic non-spore-forming gram-positive rods; assay: MIC against intestinal bacteria: anaerobic non-spore-forming gram-positive rods
[8] = tested on: All Clostridium species; assay: MIC against intestinal bacteria: all Clostridium species; conditions: All Clostridium species (107)

CCc1c(Cl)c(O)c(Cl)c(O)c1C(=O)O[C@H]1[C@H](O)[C@H](OC)[C@H](OCC2=CC=CC[C@H](O)C(C)=C[C@H](CC)[C@@H](O[C@@H]3OC(C)(C)[C@@H](OC(=O)C(C)C)[C@H](O)[C@@H]3O)C(C)=CC(C)=CC[C@@H]([C@@H](C)O)OC2=O)O[C@@H]1C [R-Tiacumicin B, 3-[[[6-Deoxy-4-O-(3,5-dichloro-2-ethyl-4,6-dihydroxybenzoyl)-2-O-methyl-β-D-mannopyranosyl]oxy]-methyl]-12(R)-[[6-deoxy-5-C-methyl-4-O-(2-methyl-1-oxopropyl)-β-D-lyxo-hexopyranosyl]oxy]-11(S)-ethyl-8(S)-hydroxy-18(S)-(1(R)-hydroxyethyl)-9,13,15-trimethyloxacyclooctadeca-3,5,9,13,15-pentaene-2-one]
<0.016 to 0.06 µg/mL: MIC range [2]
< 0.016 µg/mL: MIC50 [2]
0.03 µg/mL: MIC90 [2]
1 to 64 µg/mL: MIC range [4]
> 128 µg/mL: MIC50 [3] | MIC90 [3]
4 to 128 µg/mL: MIC range [5]
0.125 µg/mL: MIC ([1]; isolate 70 6376) | MIC ([1]; isolate 71 6379) | MIC ([1]; isolate 72 6380) | MIC ([1]; isolate 75 6388) | MIC ([1]; isolate 76 6389) | MIC ([1]; isolate 80 6327) | MIC ([1]; isolate 81 6328) | MIC ([1]; isolate 84 6331) | MIC ([1]; isolate 87 6334) | MIC ([1]; isolate 88 6335) | MIC ([1]; isolate 90 6338) | MIC ([1]; isolate 91 6339) | MIC ([1]; isolate 93 6341) | MIC ([1]; isolate 95 6347) | MIC ([1]; isolate 98 6350) | MIC ([1]; isolate 100 6353) | MIC ([1]; isolate A1 1535) | MIC ([1]; isolate AF1 1808) | MIC ([1]; isolate AG1 3044) | MIC ([1]; isolate AH1 3430) | MIC ([1]; isolate AN1 464) | MIC ([1]; isolate AO1 287) | MIC ([1]; isolate AS1 4099) | MIC ([1]; isolate AT1 1216) | MIC ([1]; isolate AW1 4501) | MIC ([1]; isolate BE1 4307) | MIC ([1]; isolate BI1 1675) | MIC ([1]; isolate BK1 4291) | MIC ([1]; isolate BL1 716) | MIC ([1]; isolate BN1 1322) | MIC ([1]; isolate BW1 3130) | MIC ([1]; isolate BX1 4271) | MIC ([1]; isolate CF1 5922) | MIC ([1]; isolate CG1 1566) | MIC ([1]; isolate CJ1 893) | MIC ([1]; isolate CP1 5491) | MIC ([1]; isolate F1 1015) | MIC ([1]; isolate G1 1077) | MIC ([1]; isolate I1 1389) | MIC ([1]; isolate K1 4305) | MIC ([1]; isolate K14 5780) | MIC ([1]; isolate L1 1423) | MIC ([1]; isolate N1 471) | MIC ([1]; isolate R1 397) | MIC ([1]; isolate V1 1521) | MIC ([1]; isolate W1 3931) | MIC ([1]; isolate X1 1890)
1 µg/mL: MIC50 ([7]; Anaerobic non-spore-forming gram-positive rods (63))
0.062 µg/mL: MIC50 [8]
0.06 to 1 µg/mL: MIC range [6]
32 µg/mL: MIC90 [7]
128 µg/mL: MIC90 [8]
